# Source: patent US10206862B2, “Supplement to support healthy hair, skin, and nails” (priority 2016, dated 2019)
# Columns and labels:
# [1] = system: Antioxidant Response Element (ARE); assay: ARE reporter assay (ARE-32 luciferase reporter cell line); assay type: cell-based, rat; details: ARE32 (MCF7) luciferase reporter cells, 24 hours treatment; Nrf2 antioxidant response activation
# Protocol: ARE activation was quantitated using the ARE-32 reporter cell line available from CXR-Biosciences as described in the ARE Assay below. ARE32 is a stable MCF7 cell line containing pGL8x-ARE (8 copies of the rat GST ARE linked to the luciferase gene) and pCDNA3.1, which contains the neomycin selectable marker. Selection was performed in the presence of G418 and resistant clones were isolated. Clones were screened for induction of luciferase in response to tBHQ (tert-Butylhydroquinone). The ARE32 cells are maintained routinely in the DMEM (phenol red free) containing: 10% FBS, 50 units/ml penicillin & 50 μg/ml streptomycin, 0.8 mg/ml G418. […] Cells were frozen in medium that contains 90% FBS and 10% dimethyl sulfoxide (DMSO). In a 96 well-plate, seed 1×10^4 cells/well in 100 μl DMEM containing 50 units/ml penicillin, 50 μg/ml streptomycin, 0.8 mg/ml G418 and 10% FBS. Next, incubate the cells at 37° C. in a 5% CO2 incubator for 24 hrs, and then replace the medium with 100 μl fresh media. Treat with test compounds at 2 μl per well, positive control was 25 μM TBHQ. (10 mM tBHQ of stock solution freshly prepared in DMSO). Add 100 μl of media after treatment for a final assay volume of 200 μL. Incubate the cells at 37° C. in CO2 incubator for another 24 hours. […]
# keratinocytes = assay: Reduction in ATP depletion after peroxide stress (CellTiter-Glo); assay type: cell-based; details: 1 hour treatment, net luminescence = treatment counts minus vehicle control counts
# Protocol: Hydrogen peroxide is a well-known ROS and is commonly used as a model to analyze the effects of various ROS. In this test, keratinocytes were cultured (passage <8) in T150 flasks using EpiLife® medium (Calcium Free and Phenol Red Free, supplemented with penicillin/streptomycin and keratinocytes growth supplement, Invitrogen™ cat# MEPICFPRF500). The keratinocytes were then plated in 24 well plates, 40,000 cells/well, 1 ml media. After 24 hours, the keratinocytes were treated with organic astaxanthin and astaxanthin in combination with Digestive Support Blend (see Example 1 above), Stress and Energy Support Blend (see Example 1 above), Reishi, or biotin for 1 hour. The keratinocytes were washed in PBS and ATP levels were measured using the CellTiter-Glo® Luminescent Cell Viability Assay (available from Promega, cat# G7571/2/3) per manufacturer's directions. Luminescence was measured on a SpectraMax® M3 (available from Molecular Devices, Sunnyvale, Calif., USA). Net luminescence (or net ATP) is calculated by subtracting the luminescence counts from the vehicle control from the luminescence counts from the treatment groups.
# [2] = system: PGE2 release from UVB stressed keratinocytes; assay: PGE2 assay in UVB stressed keratinocytes; assay type: cell-based; details: telomerized human keratinocytes, UVB 15 mJ/cm^2, 24 hours treatment; PGE2 (pg/mL) normalized to ATP; FIG. 3
# Protocol: Telomerized human keratinocytes are propgated in EpiLife® Media in CO2-incubator at 37° C. in T150 flasks (available from Corning®, Corning, N.Y., USA). […] The plates were incubated another 2 days until cell confluency reaches >80%. At this point, the cells were irradiated with a Bio-Sun™ UV with UVB light for a dose of 15 mJ/cm^2. The media was then switched with fresh medium prepared with the treatments. The cells were then incubated for 24 hours before harvest. At harvest, the media supernatant was collected and transferred to a deep well plate and frozen in −80° C. for later determination of PGE2 levels. PGE2 levels were measured from the media supernatants using the PGE2 Assay kit (available from Cisbio™, Bedford, Mass.) per manufacturer's directions. PGE2 levels here were normalized to the ATP measurements such that the final PGE2 values were recorded as PGE2 (pg/mL)/ATP level treatment compared to control. Typically, each data point is the average of 4 replicates.
Compound,ARE - Fold Over Control [1] [Fold Over Control],Net ATP (keratinocytes),PGE2 release from keratinocytes [2]
O=C(O)CCCC[C@@H]1SC[C@@H]2NC(=O)N[C@@H]21 [Biotin],1.71,947,reduce PGE2
"CC1=C(/C=C/C(C)=C/C=C/C(C)=C/C=C/C=C(C)/C=C/C=C(C)/C=C/C2=C(C)C(=O)[C@@H](O)CC2(C)C)C(C)(C)C[C@H](O)C1=O [Organic Astaxanthin, Astaxanthin]",2.65,1096,reduce PGE2
